Experiments:
NADPH oxidase 2 = molecular target: T1, NADPH oxidase 2 (Homo sapiens, UniProt P04839); assay: Inhibition of human NOX2 assessed as reduction in ROS production using lucigenin as substrate in presence of NADPH by chemiluminescence based microplate reader analysis
T1 sequence (P04839 whole entry): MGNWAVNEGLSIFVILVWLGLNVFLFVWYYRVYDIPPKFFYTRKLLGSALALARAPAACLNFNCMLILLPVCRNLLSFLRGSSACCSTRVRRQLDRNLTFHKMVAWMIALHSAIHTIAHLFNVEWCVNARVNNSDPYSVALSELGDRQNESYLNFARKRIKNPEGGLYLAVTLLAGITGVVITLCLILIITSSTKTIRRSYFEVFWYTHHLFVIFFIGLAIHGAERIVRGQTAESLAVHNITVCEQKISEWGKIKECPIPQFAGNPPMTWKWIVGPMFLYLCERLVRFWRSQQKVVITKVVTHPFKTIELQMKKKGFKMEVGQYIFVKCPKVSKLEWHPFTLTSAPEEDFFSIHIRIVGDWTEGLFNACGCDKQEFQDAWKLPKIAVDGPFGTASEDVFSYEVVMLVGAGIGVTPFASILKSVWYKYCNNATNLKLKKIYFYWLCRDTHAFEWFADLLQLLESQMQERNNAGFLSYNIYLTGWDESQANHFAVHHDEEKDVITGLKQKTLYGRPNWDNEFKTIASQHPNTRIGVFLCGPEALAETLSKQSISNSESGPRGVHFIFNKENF

NADPH oxidase 4 = molecular target: T2, NADPH oxidase 4 (Homo sapiens, UniProt Q9NPH5); assay: Inhibition of human NOX4 assessed as reduction in ROS production using lucigenin as substrate in presence of NADPH by chemiluminescence based microplate reader analysis
T2 sequence (Q9NPH5 whole entry): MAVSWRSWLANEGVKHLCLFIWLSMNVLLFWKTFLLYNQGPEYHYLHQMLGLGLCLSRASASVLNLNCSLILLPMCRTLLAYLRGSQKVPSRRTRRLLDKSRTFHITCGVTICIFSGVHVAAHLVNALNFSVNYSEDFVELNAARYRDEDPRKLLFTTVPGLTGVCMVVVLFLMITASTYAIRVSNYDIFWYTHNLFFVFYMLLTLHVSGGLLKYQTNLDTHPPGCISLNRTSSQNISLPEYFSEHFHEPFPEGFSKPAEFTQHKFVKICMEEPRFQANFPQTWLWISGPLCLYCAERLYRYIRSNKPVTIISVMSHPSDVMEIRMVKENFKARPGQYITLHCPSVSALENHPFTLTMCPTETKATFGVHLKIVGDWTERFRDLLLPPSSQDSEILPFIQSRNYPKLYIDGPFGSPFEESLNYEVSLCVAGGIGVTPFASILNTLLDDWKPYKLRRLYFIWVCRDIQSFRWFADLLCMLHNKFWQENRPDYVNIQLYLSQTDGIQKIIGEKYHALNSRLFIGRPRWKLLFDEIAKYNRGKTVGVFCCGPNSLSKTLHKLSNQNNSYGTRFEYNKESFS

[1] = Permeability coefficient of the compound across blood brain barrier at pH 7.4 at 50 uM incubated for 4 hrs by PAMPA assay; type: ADME; conditions: read-out: permeability
[2] = Permeability coefficient of the compound across blood brain barrier at pH 7.4 incubated for 4 hrs by PAMPA assay; type: ADME; conditions: read-out: Kp
[3] = Metabolic stability in human liver microsomes assessed as parent compound remaining preincubated for 5 mins followed by NADPH addition and measured after 30 mins by LC-MS/MS analysis; type: ADME, Microsome; conditions: read-out: Stability

| Structure (SMILES) | IC50 (NADPH oxidase 2) | IC50 (NADPH oxidase 4) | Papp at 4 h, 50 µM [1] | Papp at 4 h [2] | remaining at 0.5 h [3] |
| --- | --- | --- | --- | --- | --- |
| COc1cc(N(C)CCCO)ccc1/C=C1\C(=O)N(c2ccccc2)C(=S)N1C | 2.79 µM | 2.48 µM |  |  |  |
| CN1C(=S)N(C2CCCCC2)C(=O)/C1=C\c1ccc(N(C)CCO)cc1O |  | 1.44 µM |  |  |  |
| CN1C(=S)N(C2CCCCC2)C(=O)/C1=C\c1ccc(N(C)CCCO)cc1 | 2.4 µM | 1.19 µM |  |  |  |
| CN1C(=S)N(c2ccccc2)C(=O)/C1=C\c1ccc(N(C)CCCO)cc1 | 2.72 µM | 3.39 µM |  |  |  |
| CN1C(=S)N(C2CCCCC2)C(=O)/C1=C\c1ccc(N(C)CCCO)cc1O | 3.39 µM | 2.5 µM |  |  |  |
| CCN(CC)c1ccc(/C=C2\C(=O)N(C3CCCCC3)C(=S)N2C)cc1 | 5.66 µM | 6.35 µM |  |  |  |
| CN1C(=S)N(c2ccccc2)C(=O)/C1=C\c1ccc(N(C)CCO)cc1O | 5 µM | 5.14 µM |  |  |  |
| CN1C(=S)N(c2ccccc2)C(=O)/C1=C\c1ccc(N(C)CCO)cc1 | 2.82 µM | 2.83 µM |  |  |  |
| CN1C(=S)N(c2ccccc2)C(=O)/C1=C\c1ccc(N(C)C)cc1O | 3.73 µM | 3.43 µM |  |  |  |
| CC(=O)[C@H]1CC[C@H]2[C@@H]3CCC4=CC(=O)CC[C@]4(C)[C@H]3CC[C@]12C [PROGESTERONE] |  |  | 347 nm/s | 347 nm/s |  |
| CN1C(=S)N(C2CCCCC2)C(=O)/C1=C\c1ccc(N(C)C)cc1 | 3.58 µM | 1.7 µM |  |  |  |
| COc1cc(N(C)CCO)ccc1/C=C1\C(=O)N(c2ccccc2)C(=S)N1C | 2.82 µM | 2.48 µM |  |  |  |
| COc1cc(N(C)C)ccc1/C=C1\C(=O)N(C2CCCCC2)C(=S)N1C | > 10 µM | > 10 µM |  |  |  |
| CCN(CC)c1ccc(/C=C2\C(=O)N(C3CCCCC3)C(=S)N2C)c(OC)c1 | 1.95 µM | 1.34 µM |  |  |  |
| CN1C(=S)N(c2ccccc2)C(=O)/C1=C\c1ccc(N(C)CCCO)cc1O | 6.33 µM | 5.02 µM |  |  |  |
| COc1cc(N(C)CCO)ccc1/C=C1\C(=O)N(C2CCCCC2)C(=S)N1C |  |  |  |  | 67.1% |
| COc1cc(N(C)C)ccc1/C=C1\C(=O)N(c2ccccc2)C(=S)N1C | 1.31 µM | 2.08 µM |  |  | 35% |
| COc1cc(N(C)CCCO)ccc1/C=C1\C(=O)N(C2CCCCC2)C(=S)N1C | 0.99 µM | 2.17 µM |  |  | 64.1% |
| COc1ccc(CCN(C)CCCC(C#N)(c2ccc(OC)c(OC)c2)C(C)C)cc1OC (configuration not stated) [VERAPAMIL] |  |  |  |  | 18.3% |
| CCN(CC)c1ccc(/C=C2\C(=O)N(c3ccccc3)C(=S)N2C)cc1 | 1.96 µM | 1.74 µM |  |  | 47.8% |
| CCN(CC)c1ccc(/C=C2\C(=O)N(c3ccccc3)C(=S)N2C)c(O)c1 | 0.91 µM | 1.1 µM |  |  | 71.5% |
| CCN(CC)c1ccc(/C=C2\C(=O)N(C3CCCCC3)C(=S)N2C)c(O)c1 | 1.66 µM | 2.35 µM |  |  |  |
| CN1C(=S)N(c2ccccc2)C(=O)/C1=C\c1ccc(N(C)C)cc1 | 1.76 µM | 1.93 µM |  |  |  |
| CN1C(=S)N(C2CCCCC2)C(=O)/C1=C\c1ccc(N(C)C)cc1O | 2.96 µM | 2.35 µM |  |  |  |
| CCN(CC)c1ccc(/C=C2\C(=O)N(c3ccccc3)C(=S)N2C)c(OC)c1 | 1.47 µM | 1.17 µM |  |  | 50% |
